Values quoted from earlier work as cited in patent US5672583A, “Carboxy-peptidyl derivatives as antidegenerative active agents” (Merck & Co., Inc., priority 1995, dated 1997).

What was measured:
[1] = molecular target: rabbit bone proteoglycanase (Oryctolagus cuniculus, UniProt P28863); settings: Delaisse et al., Biochem. Biophys. Res. Commun. 133, 483-90 (1985)
[2] = molecular target: T1, human rheumatoid synovial collagenase (Homo sapiens, UniProt P03956); settings: Delaisse et al., Biochem. Biophys. Res. Commun. 133, 483-90 (1985)
T1 sequence (P03956 100-469): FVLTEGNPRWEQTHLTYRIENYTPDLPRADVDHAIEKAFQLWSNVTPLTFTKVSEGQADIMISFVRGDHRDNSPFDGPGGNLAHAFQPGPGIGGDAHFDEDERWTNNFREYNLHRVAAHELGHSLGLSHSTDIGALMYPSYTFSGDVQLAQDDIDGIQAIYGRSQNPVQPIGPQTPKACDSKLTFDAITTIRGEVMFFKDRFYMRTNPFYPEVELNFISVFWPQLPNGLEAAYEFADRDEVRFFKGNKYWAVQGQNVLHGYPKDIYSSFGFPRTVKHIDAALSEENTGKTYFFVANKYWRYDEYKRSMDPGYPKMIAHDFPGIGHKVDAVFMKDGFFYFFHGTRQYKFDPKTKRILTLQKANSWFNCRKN

rabbit bone proteoglycanase, sequence (P28863 101-478): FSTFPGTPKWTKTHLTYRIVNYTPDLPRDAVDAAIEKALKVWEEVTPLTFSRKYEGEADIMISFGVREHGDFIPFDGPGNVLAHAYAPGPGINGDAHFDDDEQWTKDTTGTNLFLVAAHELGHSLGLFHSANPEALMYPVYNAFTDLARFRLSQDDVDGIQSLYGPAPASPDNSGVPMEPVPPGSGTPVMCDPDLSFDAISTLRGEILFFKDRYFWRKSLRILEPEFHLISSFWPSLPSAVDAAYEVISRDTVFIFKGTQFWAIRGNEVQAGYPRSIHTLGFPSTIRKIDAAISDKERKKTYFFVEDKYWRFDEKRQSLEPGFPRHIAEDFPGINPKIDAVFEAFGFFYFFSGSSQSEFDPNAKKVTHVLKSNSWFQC

## CNC(=O)[C@H](Cc1ccc(OC)cc1)NC(=O)[C@H](CC(C)C)NC(CCNC(=O)OCc1ccccc1)C(=O)O (stereo partly drawn) [N-[3-(benzyloxycarbonyl)amino-1-carboxy-n-propyl]-L-leucyl-O-methyl-L-tyrosine, N-methylamide]
[1]
  IC50: 500 nM
[2]
  IC50: 800 nM
